Results from patent US6355799B1, “Substituted benzene compounds, process for their preparation, and herbicidal and defoliant compositions containing them” (ISK Americas Incorporated, priority 1997, dated 2002).

Columns and labels:
Type in all cases: in vivo
[1] = system: redroot pigweed (Amaranthus retroflexus, AMARE); assay: Pre-emerge test, greenhouse herbicide activity screening; conditions: rated 14 days after application, 0 = no damage, 100 = complete death
Method in brief: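 Compounds in acetone were track-sprayed at 187 l/ha, 15–1000 g ai/ha, onto sandy loam pots. Pre-emerge seeds were sown one day before spraying, with surface watering afterwards. Post-emerge plants were at the 2–3 leaf stage and sprayed with 0.25% v/v non-ionic surfactant. Injury was rated 0–100 at 14 days.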

[2] = system: barnyardgrass (Echinochloa crus-galli, ECHCG); assay: as above; conditions: rated 14 days after application, 0 = no damage, 100 = complete death
Method in brief: (§1)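 Visual ratings on a 0-100 scale (0 no damage, 100 all plants dead) were taken at 14 days after treatment. Rates of 15-1000 g ai/ha in acetone, 187 l/ha, were sprayed onto soil one day after planting (pre-emerge) or onto 2-3 leaf plants with 0.25% v/v surfactant (post-emerge).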

[3] = system: common ragweed (Ambrosia artemisizfolia L., AMBEL); assay: as above; conditions: rated 14 days after application, 0 = no damage, 100 = complete death
Method in brief: as §1

[4] = system: green foxtail (Setaria viridis, SETVI); assay: as above; conditions: rated 14 days after application, 0 = no damage, 100 = complete death
Method in brief: as §1

[5] = system: ivyleaf morningglory (Ipomoea hederacea, IPOHE); assay: as above; conditions: rated 14 days after application, 0 = no damage, 100 = complete death
Method in brief: as §1

[6] = system: johnsongrass (Sorghum halepense, SORHA); assay: as above; conditions: rated 14 days after application, 0 = no damage, 100 = complete death
Method in brief: as §1

[7] = system: lambsquarters (Chenopodium album, CHEAL); assay: as above; conditions: rated 14 days after application, 0 = no damage, 100 = complete death
Method in brief: as §1

[8] = system: large crabgrass (Digitaria sanguinalis, DIGSA); assay: as above; conditions: rated 14 days after application, 0 = no damage, 100 = complete death
Method in brief: as §1

[9] = system: sicklepod (Cassia obtusifolia, CASOB); assay: as above; conditions: rated 14 days after application, 0 = no damage, 100 = complete death
Method in brief: as §1

[10] = system: velvetleaf (Abutilon theophrasti, ABUTH); assay: as above; conditions: rated 14 days after application, 0 = no damage, 100 = complete death
Method in brief: as §1

[11] = system: field corn (Zea mays L., var. Dekalb 535, CORN); assay: Pre-emerge test, crop safety; conditions: rated 14 days after application, 0 = no damage, 100 = complete death
Method in brief: (§2)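 Plants grown in 10 cm pots of sandy loam mix received acetone-dissolved compounds through a moving flat-fan nozzle. Doses ranged from 15 to 1000 g ai/ha. Pre-emerge pots were seeded one day earlier, post-emerge pots 8–21 days earlier. Fourteen days on, each pot was graded 0–100 for damage.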

[12] = system: upland rice (Oryza sp., var. Tebonnet, RICE); assay: Pre-emerge test, crop safety; conditions: rated 14 days after application, 0 = no damage, 100 = complete death
Method in brief: as §2

[13] = system: barnyardgrass (Echinochloa crus-galli, ECHCG); assay: Post-emerge test, greenhouse herbicide activity screening; conditions: post-emerge, 14 days after application, rating scale 0-100
Method in brief: (§3)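 Fourteen days after spraying, crop and weed injury was graded visually from 0, no effect, to 100, every plant dead. Test substances were dissolved in acetone and applied at 15–1000 g ai/ha with a flat-fan nozzle. Application was either pre-emergence, one day after sowing, or post-emergence at the 2–3 leaf stage.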

[14] = system: common ragweed (Ambrosia artemisizfolia L., AMBEL); assay: as above; conditions: post-emerge, 14 days after application, rating scale 0-100
Method in brief: as §3

[15] = system: green foxtail (Setaria viridis, SETVI); assay: as above; conditions: post-emerge, 14 days after application, rating scale 0-100
Method in brief: as §3

[16] = system: ivyleaf morningglory (Ipomoea hederacea, IPOHE); assay: as above; conditions: post-emerge, 14 days after application, rating scale 0-100
Method in brief: as §3

[17] = system: johnsongrass (Sorghum halepense, SORHA); assay: as above; conditions: post-emerge, 14 days after application, rating scale 0-100
Method in brief: as §3

[18] = system: lambsquarters (Chenopodium album, CHEAL); assay: as above; conditions: post-emerge, 14 days after application, rating scale 0-100
Method in brief: as §3

[19] = system: large crabgrass (Digitaria sanguinalis, DIGSA); assay: as above; conditions: post-emerge, 14 days after application, rating scale 0-100
Method in brief: as §3

[20] = system: redroot pigweed (Amaranthus retroflexus, AMARE); assay: as above; conditions: post-emerge, 14 days after application, rating scale 0-100
Method in brief: as §3

[21] = system: sicklepod (Cassia obtusifolia, CASOB); assay: as above; conditions: post-emerge, 14 days after application, rating scale 0-100
Method in brief: as §3

[22] = system: velvetleaf (Abutilon theophrasti, ABUTH); assay: as above; conditions: post-emerge, 14 days after application, rating scale 0-100
Method in brief: as §3

[23] = system: field corn (Zea mays L., var. Dekalb 535, CORN); assay: Post-emerge test, crop safety; conditions: post-emerge, 14 days after application, rating scale 0-100
Method in brief: as §1

[24] = system: upland rice (Oryza sp., var. Tebonnet, RICE); assay: Post-emerge test, crop safety; conditions: post-emerge, 14 days after application, rating scale 0-100
Method in brief: as §1

COc1c(Cl)cc(F)c(-n2c(=O)cc(C(F)(F)F)n(N)c2=O)c1NC(=O)c1ccc(F)cc1F [2-44]
Pre-emerge Herbicidal Activity, phytotoxicity rating (0-100), AMARE ([1]; 63 g ai/ha): 100
Pre-emerge Herbicidal Activity, phytotoxicity rating (0-100), AMARE ([1]; 250 g ai/ha): 100
Pre-emerge Herbicidal Activity, phytotoxicity rating (0-100), ECHCG ([2]; 63 g ai/ha): 30
Pre-emerge Herbicidal Activity, phytotoxicity rating (0-100), ECHCG ([2]; 250 g ai/ha): 99
Pre-emerge Herbicidal Activity, phytotoxicity rating (0-100), AMBEL ([3]; 63 g ai/ha): 100
Pre-emerge Herbicidal Activity, phytotoxicity rating (0-100), AMBEL ([3]; 250 g ai/ha): 100
Pre-emerge Herbicidal Activity, phytotoxicity rating (0-100), SETVI ([4]; 63 g ai/ha): 90
Pre-emerge Herbicidal Activity, phytotoxicity rating (0-100), SETVI ([4]; 250 g ai/ha): 100
Pre-emerge Herbicidal Activity, phytotoxicity rating (0-100), IPOHE ([5]; 63 g ai/ha): 90
Pre-emerge Herbicidal Activity, phytotoxicity rating (0-100), IPOHE ([5]; 250 g ai/ha): 100
Pre-emerge Herbicidal Activity, phytotoxicity rating (0-100), SORHA ([6]; 63 g ai/ha): 50
Pre-emerge Herbicidal Activity, phytotoxicity rating (0-100), SORHA ([6]; 250 g ai/ha): 95
Pre-emerge Herbicidal Activity, phytotoxicity rating (0-100), CHEAL ([7]; 63 g ai/ha): 100
Pre-emerge Herbicidal Activity, phytotoxicity rating (0-100), CHEAL ([7]; 250 g ai/ha): 100
Pre-emerge Herbicidal Activity, phytotoxicity rating (0-100), DIGSA ([8]; 63 g ai/ha): 60
Pre-emerge Herbicidal Activity, phytotoxicity rating (0-100), DIGSA ([8]; 250 g ai/ha): 100
Pre-emerge Herbicidal Activity, phytotoxicity rating (0-100), CASOB ([9]; 63 g ai/ha): 60
Pre-emerge Herbicidal Activity, phytotoxicity rating (0-100), CASOB ([9]; 250 g ai/ha): 100
Pre-emerge Herbicidal Activity, phytotoxicity rating (0-100), ABUTH ([10]; 63 g ai/ha): 100
Pre-emerge Herbicidal Activity, phytotoxicity rating (0-100), ABUTH ([10]; 250 g ai/ha): 100
Pre-emerge phytotoxicity rating (0-100), crop damage, CORN ([11]; 63 g ai/ha): 10
Pre-emerge phytotoxicity rating (0-100), crop damage, CORN ([11]; 250 g ai/ha): 70
Pre-emerge phytotoxicity rating (0-100), crop damage, RICE ([12]; 63 g ai/ha): 20
Pre-emerge phytotoxicity rating (0-100), crop damage, RICE ([12]; 250 g ai/ha): 80
phytotoxicity rating ECHCG ([13]; 63 g ai/ha): 0
phytotoxicity rating ECHCG ([13]; 250 g ai/ha): 10
phytotoxicity rating AMBEL ([14]; 63 g ai/ha): 60
phytotoxicity rating AMBEL ([14]; 250 g ai/ha): 90
phytotoxicity rating SETVI ([15]; 63 g ai/ha): 0
phytotoxicity rating SETVI ([15]; 250 g ai/ha): 50
phytotoxicity rating IPOHE ([16]; 63 g ai/ha): 50
phytotoxicity rating IPOHE ([16]; 250 g ai/ha): 100
phytotoxicity rating SORHA ([17]; 63 g ai/ha): 0
phytotoxicity rating SORHA ([17]; 250 g ai/ha): 30
phytotoxicity rating CHEAL ([18]; 63 g ai/ha): 60
phytotoxicity rating CHEAL ([18]; 250 g ai/ha): 90
phytotoxicity rating DIGSA ([19]; 63 g ai/ha): 0
phytotoxicity rating DIGSA ([19]; 250 g ai/ha): 10
phytotoxicity rating AMARE ([20]; 63 g ai/ha): 50
phytotoxicity rating AMARE ([20]; 250 g ai/ha): 90
phytotoxicity rating CASOB ([21]; 63 g ai/ha): 20
phytotoxicity rating CASOB ([21]; 250 g ai/ha): 70
phytotoxicity rating ABUTH ([22]; 63 g ai/ha): 100
phytotoxicity rating ABUTH ([22]; 250 g ai/ha): 100
phytotoxicity rating CORN ([23]; 63 g ai/ha): 0
phytotoxicity rating CORN ([23]; 250 g ai/ha): 20
phytotoxicity rating RICE ([24]; 63 g ai/ha): 0
phytotoxicity rating RICE ([24]; 250 g ai/ha): 10

COc1c(Cl)cc(F)c(-n2c(=O)cc(C(F)(F)F)n(C)c2=O)c1NC(=O)c1c(F)cccc1F [2-47]
Pre-emerge Herbicidal Activity, phytotoxicity rating (0-100), AMARE ([1]; 63 g ai/ha): 100
Pre-emerge Herbicidal Activity, phytotoxicity rating (0-100), AMARE ([1]; 250 g ai/ha): 100
Pre-emerge Herbicidal Activity, phytotoxicity rating (0-100), ECHCG ([2]; 63 g ai/ha): 0
Pre-emerge Herbicidal Activity, phytotoxicity rating (0-100), ECHCG ([2]; 250 g ai/ha): 99
Pre-emerge Herbicidal Activity, phytotoxicity rating (0-100), AMBEL ([3]; 63 g ai/ha): 50
Pre-emerge Herbicidal Activity, phytotoxicity rating (0-100), AMBEL ([3]; 250 g ai/ha): 100
Pre-emerge Herbicidal Activity, phytotoxicity rating (0-100), SETVI ([4]; 63 g ai/ha): 100
Pre-emerge Herbicidal Activity, phytotoxicity rating (0-100), SETVI ([4]; 250 g ai/ha): 100
Pre-emerge Herbicidal Activity, phytotoxicity rating (0-100), IPOHE ([5]; 63 g ai/ha): 100
Pre-emerge Herbicidal Activity, phytotoxicity rating (0-100), IPOHE ([5]; 250 g ai/ha): 100
Pre-emerge Herbicidal Activity, phytotoxicity rating (0-100), SORHA ([6]; 63 g ai/ha): 60
Pre-emerge Herbicidal Activity, phytotoxicity rating (0-100), SORHA ([6]; 250 g ai/ha): 90
Pre-emerge Herbicidal Activity, phytotoxicity rating (0-100), CHEAL ([7]; 63 g ai/ha): 100
Pre-emerge Herbicidal Activity, phytotoxicity rating (0-100), CHEAL ([7]; 250 g ai/ha): 100
Pre-emerge Herbicidal Activity, phytotoxicity rating (0-100), DIGSA ([8]; 63 g ai/ha): 100
Pre-emerge Herbicidal Activity, phytotoxicity rating (0-100), DIGSA ([8]; 250 g ai/ha): 100
Pre-emerge Herbicidal Activity, phytotoxicity rating (0-100), CASOB ([9]; 63 g ai/ha): 90
Pre-emerge Herbicidal Activity, phytotoxicity rating (0-100), CASOB ([9]; 250 g ai/ha): 100
Pre-emerge Herbicidal Activity, phytotoxicity rating (0-100), ABUTH ([10]; 63 g ai/ha): 100
Pre-emerge Herbicidal Activity, phytotoxicity rating (0-100), ABUTH ([10]; 250 g ai/ha): 100
Pre-emerge phytotoxicity rating (0-100), crop damage, CORN ([11]; 63 g ai/ha): 40
Pre-emerge phytotoxicity rating (0-100), crop damage, CORN ([11]; 250 g ai/ha): 99
Pre-emerge phytotoxicity rating (0-100), crop damage, RICE ([12]; 63 g ai/ha): 70
Pre-emerge phytotoxicity rating (0-100), crop damage, RICE ([12]; 250 g ai/ha): 95
phytotoxicity rating ECHCG ([13]; 63 g ai/ha): 0
phytotoxicity rating ECHCG ([13]; 250 g ai/ha): 10
phytotoxicity rating AMBEL ([14]; 63 g ai/ha): 50
phytotoxicity rating AMBEL ([14]; 250 g ai/ha): 90
phytotoxicity rating SETVI ([15]; 63 g ai/ha): 20
phytotoxicity rating SETVI ([15]; 250 g ai/ha): 30
phytotoxicity rating IPOHE ([16]; 63 g ai/ha): 70
phytotoxicity rating IPOHE ([16]; 250 g ai/ha): 100
phytotoxicity rating SORHA ([17]; 63 g ai/ha): 0
phytotoxicity rating SORHA ([17]; 250 g ai/ha): 0
phytotoxicity rating CHEAL ([18]; 63 g ai/ha): 80
phytotoxicity rating CHEAL ([18]; 250 g ai/ha): 100
phytotoxicity rating DIGSA ([19]; 63 g ai/ha): 0
phytotoxicity rating DIGSA ([19]; 250 g ai/ha): 0
phytotoxicity rating AMARE ([20]; 63 g ai/ha): 90
phytotoxicity rating AMARE ([20]; 250 g ai/ha): 100
phytotoxicity rating CASOB ([21]; 63 g ai/ha): 70
phytotoxicity rating CASOB ([21]; 250 g ai/ha): 100
phytotoxicity rating ABUTH ([22]; 63 g ai/ha): 100
phytotoxicity rating ABUTH ([22]; 250 g ai/ha): 100
phytotoxicity rating CORN ([23]; 63 g ai/ha): 10
phytotoxicity rating CORN ([23]; 250 g ai/ha): 15
phytotoxicity rating RICE ([24]; 63 g ai/ha): 20
phytotoxicity rating RICE ([24]; 250 g ai/ha): 45
